From PubChem BioAssay (NCI)
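Results reflect a 48-hour exposure of cells in 96-well plates to compound at five concentrations. Abbreviation: GI50, concentration required for 50% inhibition of growth. Definition used: TGI = concentration required for complete inhibition of growth.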

Legend:
Assay in all cases: NCI tumour cell line growth inhibition, 48 h
786-0 renal = system: 786-0 renal
ACHN renal = system: ACHN renal
CAKI-1 renal = system: CAKI-1 renal
CCRF-CEM leukemia = system: CCRF-CEM leukemia
KM12 colon = system: KM12 colon
MCF7 breast = system: MCF7 breast
OVCAR-8 ovarian = system: OVCAR-8 ovarian
SK-MEL-2 melanoma = system: SK-MEL-2 melanoma
SNB-19 CNS = system: SNB-19 CNS
T-47D breast = system: T-47D breast

Compound | GI50 (786-0 renal) | TGI (786-0 renal) | GI50 (ACHN renal) | TGI (ACHN renal) | GI50 (CAKI-1 renal) | TGI (CAKI-1 renal) | GI50 (CCRF-CEM leukemia) | TGI (CCRF-CEM leukemia) | GI50 (KM12 colon) | TGI (KM12 colon) | GI50 (MCF7 breast) | TGI (MCF7 breast) | GI50 (OVCAR-8 ovarian) | TGI (OVCAR-8 ovarian) | GI50 (SK-MEL-2 melanoma) | TGI (SK-MEL-2 melanoma) | GI50 (SNB-19 CNS) | TGI (SNB-19 CNS) | GI50 (T-47D breast) | TGI (T-47D breast)
CN1CCN(Cc2ccc(NC(=O)c3cncc(C#Cc4c(N)ncc5ccc(C#N)cc45)c3)cc2C(F)(F)F)CC1 | 0.901 µM | 1.71 µM | 0.717 µM | 1.39 µM | 0.943 µM | 1.93 µM | 1.04 µM | 3.08 µM | 0.005 µM | 0.791 µM | 0.694 µM | 1.59 µM | 0.926 µM | 1.87 µM | 2.44 µM | 9.56 µM | 0.952 µM | 1.79 µM | 1.23 µM | 5.85 µM
OCc1ccc(-c2csc(-c3ccc(CO)o3)c2)o1 | 69.5 µM | > 100 µM | 43.9 µM | > 100 µM | 41.5 µM | > 100 µM | 31.1 µM | > 100 µM | 39.1 µM | > 100 µM | 0.752 µM | > 95 µM | 31.5 µM | > 100 µM | 40.9 µM | > 100 µM | > 76.4 µM | > 100 µM | 1.44 µM | 40 µM
COc1cc2c(NCCCCCO)ncnc2c(OC)c1OC |  | > 100 µM |  | > 100 µM |  | > 100 µM |  | > 100 µM |  | > 100 µM |  | > 100 µM |  | > 100 µM |  | > 100 µM |  | > 100 µM |  | > 100 µM
O=C(Cn1c(C(=O)c2ccc(Cl)cc2)nc(-c2ccc(Cl)cc2)c1-c1ccc(Cl)cc1)c1ccccc1 | > 100 µM | > 100 µM | > 100 µM | > 100 µM | > 100 µM | > 100 µM | > 100 µM | > 100 µM | > 100 µM | > 100 µM | > 100 µM | > 100 µM | > 100 µM | > 100 µM | > 100 µM | > 100 µM | > 100 µM | > 100 µM | > 100 µM | > 100 µM
COC(=O)c1ccc2nc(-c3cc4ccccc4n3C)n(CCCCOc3cc4c(cc3OC)C(=O)N3CCC[C@H]3C=N4)c2c1 | 0.789 µM | 2.46 µM | 1.17 µM | 6.75 µM | 0.953 µM | 4.85 µM | 2.53 µM | > 100 µM | 0.255 µM | 0.787 µM | 0.292 µM | 1.41 µM | 0.8 µM | 7.25 µM |  | 0.631 µM | 2.15 µM | 7.07 µM | 0.751 µM | 3.51 µM
CCn1c(-c2nonc2N)nc2c(C#CC(C)(C)O)ncc(OC3CCNCC3)c21 | 6.79 µM | > 25 µM | > 25 µM | > 25 µM | > 25 µM | > 25 µM | 5.18 µM | > 25 µM | 4.52 µM | > 25 µM | 3.93 µM | > 22.5 µM | 12.9 µM | > 25 µM | 8.01 µM | 19.4 µM | 7.83 µM | > 25 µM | 1.21 µM | > 25 µM
COc1cc(-c2cc3ncccc3c3nc(OCCN(C)C)c4cccnc4c23)cc(OC)c1OC | 0.318 µM | 1.16 µM | 0.281 µM | 1.54 µM | 0.468 µM | 3.14 µM | 0.714 µM | 8.09 µM | 1.14 µM | > 100 µM | 0.389 µM | 14.8 µM | 0.339 µM | 1.94 µM | 0.744 µM | 3.71 µM | 0.576 µM | 29.5 µM | 0.769 µM | 37 µM
Fc1cc(F)c(F)c(S)c1F |  | > 100 µM |  | > 100 µM |  | > 100 µM |  | > 100 µM |  | > 100 µM |  | > 100 µM |  | > 100 µM |  | > 100 µM |  | > 100 µM |  | > 100 µM
Cn1cc(C2=C(c3c4n(c5ccccc35)CCNC4)C(=O)NC2=O)c2ccccc21 | 14.8 µM | > 25 µM | 7.93 µM | > 25 µM | 5.85 µM | > 22.3 µM | 8.91 µM | > 25 µM | 8.63 µM | > 25 µM | 4.78 µM | > 23.8 µM | > 16.9 µM | > 25 µM | 8.03 µM | > 21.3 µM | > 22 µM | > 25 µM | > 21.2 µM | > 25 µM
CNC(=O)c1nn(C)c2c1C(C)(C)Cc1cnc(Nc3cccc(N4CCN(C)CC4)c3)nc1-2 | 0.398 µM | 14.1 µM | 0.0896 µM | > 58.2 µM | 0.0636 µM | 1.9 µM | 0.382 µM | > 26.8 µM | 0.0514 µM | 3.43 µM | 0.304 µM | 15.5 µM | 1.25 µM | 22.3 µM | 0.244 µM | 4.22 µM | 0.322 µM | 28.7 µM | 0.59 µM | 22.6 µM
N#CC(C#N)=NNc1ccc2cn[nH]c2c1 |  | > 100 µM |  | > 100 µM |  | 96.4 µM |  | 55 µM |  | > 100 µM |  | > 100 µM |  | > 100 µM |  | > 100 µM |  | > 100 µM |  | > 100 µM
CNS(=O)(=O)OCC1OC(n2cnc3cncnc32)C(O)C1O (centres undefined) | > 100 µM | > 100 µM | > 100 µM | > 100 µM | > 100 µM | > 100 µM | > 100 µM | > 100 µM | > 100 µM | > 100 µM | > 100 µM | > 100 µM | > 100 µM | > 100 µM | > 100 µM | > 100 µM | > 100 µM | > 100 µM | > 100 µM | > 100 µM
COc1cc(OC)cc(Oc2cnc3cc(N)cc(N)c3n2)c1 | 15.2 µM | 29 µM | 15.8 µM | 33.3 µM | 13 µM | 27.7 µM | 28.5 µM | > 100 µM | 10.3 µM | 24.1 µM | 20.5 µM | 49.3 µM | 22.6 µM | 52.5 µM | 19.7 µM | 43.3 µM | 17.5 µM | 45.6 µM | 13.6 µM | 42.4 µM
